In patent publication US20130184257A1, “PIPERIDINYL-SUBSTITUTED LACTAMS AS GPR119 MODULATORS” (priority 2010, published 2013):

System: modified version of the GPR119 receptor (94% identity to human receptor) stably expressed in HEK-293 cells
Experiment: cAMP Production Assay (LANCE cAMP kit, TR-FRET)
Format: cell-based
Conditions: for cAMP production in HEK-293 cells: HEK-293 cells expressing modified GPR119, test compounds 0.2 nM to 10 μM, one-hour incubation at ambient temperature; for Fold over baseline: increase in cAMP relative to basal levels, 1.5-fold or greater = agonist activity
Method: The assay utilized HEK-293 cells that stably express a modified version of the GPR119 receptor (94% identity to human receptor), under the control of a CMV promoter containing a tet-on element for tetracycline-inducible expression. GPR119 agonist-induced cyclic AMP (cAMP) production was measured in this cell line using the LANCE cAMP kit (Perkin Elmer, Waltham, Mass.). To generate a working stock of cells for the assay, cells were treated overnight with 1 μg/mL doxycycline at 37° C. in the presence of 5% CO2 to induce receptor expression. Cells were then harvested by enzymatic dissociation with 0.05% trypsin, resuspended in freezing medium (DMEM growth medium with 10% each of fetal bovine serum and DMSO), aliquoted and frozen at −80° C. On the day of the assay, frozen cells were thawed, washed 1× in PBS and resuspended in Hank's buffered salt solution (HBSS) containing 5 mM HEPES, 0.1% BSA and Alexa Fluor 647-conjugated anti-cAMP antibody (diluted 1:100). The cell suspension was then transferred to a Proxiplate Plus white 384-well assay plate (Perkin-Elmer) at 2000 cells/well. Test compounds at final concentrations ranging from 0.2 nM to 10 μM were added to the assay plate, followed by a one-hour incubation at ambient temperature (volume=10 μL/well). DMSO concentration was held constant at 0.5%. After incubation with test compounds, 10 μL of a detergent buffer containing a biotinylated cAMP/Europium-conjugated streptavidin complex (Europium-labeled cAMP tracer) were added to each well on the assay plate, followed by a 2-hour incubation at ambient temperature. During this incubation cAMP released from lysed cells competes with the Europium-labeled cAMP tracer for binding to the Alexa Fluor 647-conjugated antibody. […] Cellular cAMP levels were then determined by interpolation of raw signal data using a cAMP standard curve. Compounds were determined to have agonist activity if they stimulated a 1.5-fold or greater increase in cAMP relative to basal levels.

Row | Compound | cAMP production in HEK-293 cells | Fold over baseline
1 | CCC(F)(F)c1nc(N2CCC(N3CC[C@H](Nc4ccc(S(C)(=O)=O)cc4F)C3=O)CC2)no1 [Example 47, (S)-1-(1-(5-(1,1-difluoropropyl)-1,2,4-oxadiazol-3-yl)piperidin-4-yl)-3-(2-fluoro-4-(methylsulfonyl)-phenylamino)pyrrolidin-2-one] | 17.2 nmol | 2.5
2 | CCS(=O)(=O)c1ccc(N[C@H]2CCN(C3CCN(c4noc(C(F)(F)F)n4)CC3)C2=O)c(F)c1 [Example 34, (S)-3-(4-(ethylsulfonyl)-2-fluorophenylamino)-1-(1-(5-(trifluoromethyl)-1,2,4-oxadiazol-3-yl)piperidin-4-yl)pyrrolidin-2-one] | 7.3 nmol | 2.8
3 | CS(=O)(=O)c1cc(F)c(N[C@H]2CCN(C3CCN(c4nc(C(F)(F)F)no4)CC3)C2=O)cc1F [Example 59, (S)-3-((2,5-difluoro-4-(methylsulfonyl)phenyl)amino)-1-(1-(3-(trifluoromethyl)-1,2,4-oxadiazol-5-yl)piperidin-4-yl)pyrrolidin-2-one] | 25.7 nmol | 3.9
4 | CC(C)(F)c1nc(N2CCC(N3CC[C@H](Nc4ccc(S(C)(=O)=O)cc4F)C3=O)CC2)no1 [Example 42, (S)-3-(2-fluoro-4-(methylsulfonyl)-phenylamino)-1-(1-(5-(2-fluoropropan-2-yl)-1,2,4-oxadiazol-3-yl)piperidin-4-yl)pyrrolidin-2-one] | 12.5 nmol | 5.1
5 | CC(C)c1nc(N2CCC(N3CCC[C@H](Nc4ccc(S(C)(=O)=O)cc4F)C3=O)CC2)no1 [Example 14, (S)-3-(2-fluoro-4-(methylsulfonyl)phenylamino)-1′-(5-isopropyl-1,2,4-oxadiazol-3-yl)-1,4′-bipiperidin-2-one] | 18.9 nmol | 3.5
6 | CS(=O)(=O)c1cc(F)c(N[C@H]2CCN(C3CCN(c4noc(C(F)(F)F)n4)CC3)C2=O)cc1F [Example 23, (S)-3-(2,5-difluoro-4-(methylsulfonyl)phenylamino)-1-(1-(5-(trifluoromethyl)-1,2,4-oxadiazol-3-yl)piperidin-4-yl)pyrrolidin-2-one] | 19.2 nmol | 3.6
7 | CS(=O)(=O)c1cc(F)c(O[C@H]2CCCN(C3CCN(c4noc(C(F)(F)F)n4)CC3)C2=O)cc1F [Example 54, (S)-3-(2,5-difluoro-4-(methylsulfonyl)phenoxy)-1′-(5-(trifluoromethyl)-1,2,4-oxadiazol-3-yl)-[1,4′-bipiperidin]-2-one] | 19.9 nmol | 4.9
8 | CS(=O)(=O)c1ccc(N[C@H]2CCN(C3CCN(c4noc(C(F)(F)F)n4)CC3)C2=O)cn1 [Example 57, (S)-3-((6-(methylsulfonyl)pyridin-3-yl)amino)-1-(1-(5-(trifluoromethyl)-1,2,4-oxadiazol-3-yl)piperidin-4-yl)pyrrolidin-2-one] | 27.2 nmol | 3.7
9 | CS(=O)(=O)c1cc(F)c(N[C@H]2CCN(C3CCN(c4noc(C(F)(F)F)n4)CC3)C2=O)c(F)c1 [Example 22, (S)-3-(2,6-difluoro-4-(methylsulfonyl)phenylamino)-1-(1-(5-(trifluoromethyl)-1,2,4-oxadiazol-3-yl)piperidin-4-yl)pyrrolidin-2-one] | 17.6 nmol | 3.6
10 | CS(=O)(=O)c1cc(F)c(N[C@H]2CCCN(C3CCN(c4nc(C(F)(F)F)no4)CC3)C2=O)cc1F [Example 9, (S)-3-(2,5-difluoro-4-(methylsulfonyl)phenylamino)-1′-(3-trifluoromethyl-1,2,4-oxadiazol-5-yl)-1,4′-bipiperidin-2-one] | 11.4 nmol | 3.5
11 | CC(F)(F)c1nc(N2CCC(N3CCC[C@H](Nc4c(F)cc(S(C)(=O)=O)cc4F)C3=O)CC2)no1 [Example 50, (S)-3-(2,6-difluoro-4-(methylsulfonyl)phenylamino)-1′-(5-(1,1-difluoroethyl)-1,2,4-oxadiazol-3-yl)-1,4′-bipiperidin-2-one] | 3.9 nmol | 1.7
12 | CC(C)c1nc(N2CCC(N3CC[C@H](Oc4ccc(S(C)(=O)=O)cc4F)C3=O)CC2)no1 [Example 18, (S)-3-(2-fluoro-4-(methylsulfonyl)phenoxy)-1-(1-(5-isopropyl-1,2,4-oxadiazol-3-yl)piperidin-4-yl)pyrrolidin-2-one] | 19.4 nmol | 3.7
13 | CS(=O)(=O)c1ccc(N[C@H]2CCN(C3CCN(c4noc(N5CCCC5)n4)CC3)C2=O)c(F)c1 [Example 51] | 16.3 nmol | 2.9
14 | CC(C)c1noc(N2CCC(N3CC[C@H](Oc4ccc(S(C)(=O)=O)cc4F)C3=O)CC2)n1 [Example 2, (S)-3-(2-fluoro-4-(methylsulfonyl)phenoxy)-1-(1-(3-isopropyl-1,2,4-oxadiazol-5-yl)piperidin-4-yl)pyrrolidin-2-one] | 27.4 nmol | 5.6
15 | CS(=O)(=O)c1ccc(O[C@H]2CCN(C3CCN(c4noc(C(F)(F)F)n4)CC3)C2=O)c(F)c1 [Example 24, (S)-3-(2-fluoro-4-(methylsulfonyl)phenoxy)-1-(1-(5-(trifluoromethyl)-1,2,4-oxadiazol-3-yl)piperidin-4-yl)pyrrolidin-2-one] | 81.6 nmol | 4.4
16 | CS(=O)(=O)c1ccc(N[C@H]2CCN(C3CCN(c4noc(-c5ccccc5)n4)CC3)C2=O)c(F)c1 [Example 44, (S)-3-(2-fluoro-4-(methylsulfonyl)-phenylamino)-1-(1-(5-phenyl-1,2,4-oxadiazol-3-yl)piperidin-4-yl)pyrrolidin-2-one] | 19.5 nmol | 6.8
17 | CS(=O)(=O)c1cc(F)c(N[C@H]2CCCCN(C3CCN(c4noc(C(F)(F)F)n4)CC3)C2=O)cc1F [Example 53, (S)-3-(2,5-difluoro-4-(methylsulfonyl)phenylamino)-1-(1-(5-(trifluoromethyl)-1,2,4-oxadiazol-3-yl)piperidin-4-yl)azepan-2-one] | 11.8 nmol | 4.7
18 | CC(C)c1noc(N2CCC(N3CC[C@H](Nc4ccc(S(C)(=O)=O)cc4F)C3=O)CC2)n1 [Example 8, (S)-3-(2-fluoro-4-(methylsulfonyl)phenylamino)-1-(1-(3-isopropyl-1,2,4-oxadiazol-5-yl)piperidin-4-yl)pyrrolidin-2-one] | 25.0 nmol | 4.9
19 | CC(C)(c1nc(N2CCC(N3CC[C@H](Nc4ccc(S(C)(=O)=O)cc4F)C3=O)CC2)no1)C(F)(F)F [Example 39, (S)-3-(2-fluoro-4-(methylsulfonyl)-phenylamino)-1-(1-(5-(1,1,1-trifluoro-2-methylpropan-2-yl)-1,2,4-oxadiazol-3-yl)piperidin-4-yl)pyrrolidin-2-one] | 8.7 nmol | 2.9
